Results taken from US7419984B2, “Pyrimidines and uses thereof” (Cell Therapeutics, Inc., priority 2002, dated 2008).

Target: T1, human LPAAT-β (Homo sapiens, UniProt O15120)
T1 construct: the full-length human LPAAT-β cDNA was amplified by PCR; poly-histidine tag (N); made in house; host or cells: Sf9 insect cells (baculovirus, pFastBac HTc); the membrane fraction was used as the enzyme
T1 sequence (O15120 24-278): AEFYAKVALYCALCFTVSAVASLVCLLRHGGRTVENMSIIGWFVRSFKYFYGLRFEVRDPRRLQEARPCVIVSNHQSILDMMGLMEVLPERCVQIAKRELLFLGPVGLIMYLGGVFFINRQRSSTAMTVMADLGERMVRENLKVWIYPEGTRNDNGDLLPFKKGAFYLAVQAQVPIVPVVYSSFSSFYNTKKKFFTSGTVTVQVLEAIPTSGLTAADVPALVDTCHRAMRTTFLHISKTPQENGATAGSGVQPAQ
Assay: LPAAT-β cell-free assay
Format: biochemical
Details: Sf9 cell membrane overexpressing recombinant LPAAT-β
How it was run: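 Membranes from Sf9 cells expressing His/myc-tagged full-length human LPAAT-β were used in HEPES-saline pH 7.5 with 1 mg/ml BSA. Compound was added from a 200 μM DMSO stock, and reaction with 18:1-CoA and sn-1-18:1 lysoPA (1 mM stocks) ran 25 min at RT. Released CoA was detected with DTNB at 405 nm; a radiometric variant used 200 μM [14C]18:1-CoA and 200 μM lysoPA.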

Row | SMILES | IC50
1 | CCOc1ccc(Cl)cc1-c1cc(Nc2ccc(S(C)(=O)=O)cc2)nc(N)n1 [Example 124, 6-(5-chloro-2-ethoxyphenyl)-N*4*-(4-methanesulfonylphenyl)pyrimidine-2,4-diamine] | 110 nM
2 | COc1ccc(Br)cc1-c1cc(Nc2ccc([N+](=O)[O-])cc2)nc(N)n1 [Example 161, 6-(5-Bromo-2-methoxy-phenyl)-N*4*-(4-nitro-phenyl)-pyrimidine-2,4-diamine] | 14 nM
3 | Cc1ccc(Cl)cc1-c1cc(Nc2ccc([N+](=O)[O-])cc2)nc(N)n1 [Example 108, 6-(5-Chloro-2-methyl-phenyl)-N*4*-(4-nitro-phenyl)-pyrimidine-2,4-diamine] | 15 nM
4 | CCOc1ccc(Cl)cc1-c1cc(Nc2ccc3cn[nH]c3c2)nc(N)n1 [Example 54, 6-(5-Chloro-2-ethoxy-phenyl)-N*4*-(1H-indazol-6-yl)-pyrimdine-2,4-diamine] | 24 nM
5 | Cc1ccc(Cl)cc1-c1cc(Nc2ccc(C#N)cc2)nc(N)n1 [Example 32, 4-[2-Amino-6-(5-chloro-2-methyl-phenyl)-pyrimidin4-ylamino]-benzonitrile] | 38 nM
6 | COc1ccc(Br)cc1-c1cc(Nc2ccc(Cl)cc2)nc(N)n1 [Example 142, 6-(5-Bromo-2-methoxy-phenyl)-N*4*-(4-chloro-phenyl)-pyrimidine-2,4-diamine] | 18 nM
7 | Nc1nc(Nc2ccc(CCO)cc2)cc(-c2cc(Cl)ccc2OCc2ccccc2)n1 [Example 158, 2-[4-{2-Amino-6-(2-benzyloxy-5-chloro-phenyl)-pyrimidin4-ylamino]-phenyl}-ethanol] | 16 nM
8 | COC(=O)c1ccc(Nc2cc(-c3cc(Cl)ccc3Cl)nc(N)n2)cc1 [Example 21, 4-[2-Amino-6-(2,5-dichloro-phenyl)-pyrimidin-4-yl-amino]-benzoic acid methyl ester] | 330 nM
9 | COc1ccc(Cl)cc1-c1cc(Nc2ccc(CCO)cc2)nc(N)n1 [Example 50, 2-{4-[2-Amino-6-(5-chloro-2-methoxy-phenyl)-pyrimidin-4-ylamino]-phenyl}-ethanol] | 46 nM
10 | COc1ccc(Br)cc1-c1cc(Nc2ccc(Br)cc2)nc(N)n1 [Example 162, 6-(5-Bromo-2-methoxy-phenyl)-N*4*-(4-bromo-phenyl)-pyrimidine-2,4-diamine] | 36 nM
11 | Nc1nc(Nc2ccc(Cl)cc2)cc(-c2cc(Br)ccc2OCc2ccc([N+](=O)[O-])cc2)n1 [Example 178, 6-[5-Bromo-2-(4-nitro-benzyloxy)-phenyl]-N*4*-(4-chloro-phenyl)-pyrimidine-2,4-diamine] | 21 nM
12 | COc1ccc(Cl)cc1-c1cc(Nc2ccc3c(c2)OCO3)nc(N)n1 [Example 13, N*4*-Benzo [1,3]dioxol-5-yl-6-(5-chloro-2-methoxy-phenyl)-pyrimidine-2,4-diamine] | 100 nM
13 | Cc1ccc(C)c(-c2cc(Nc3ccc(CCO)cc3)nc(N)n2)c1 [Example 74, 2-{4-[2-Amino-6-(2,5-dimethyl-phenyl)-pyrimidin-4-ylamino]-phenyl}-ethanol] | 550 nM
14 | C=CCOc1ccc(Cl)cc1-c1cc(Nc2ccc(Cl)cc2)nc(N)n1 [Example 174, 6-(2-Allyloxy-5-chloro-phenyl)-N*4*-(4-chloro-phenyl)-pyrimidine-2,4-diamine] | 9 nM
15 | CCOc1ccc(Br)cc1-c1cc(Nc2ccc(C(F)(F)F)nc2)nc(N)n1 [Example 128, 6-(5-bromo-2-ethoxyphenyl)-N*4*-(6-trifluoromethylpyridin-3-yl)-pyrimidine-2,4-diamine] | 190 nM
